The record followed here is US7288537B2, “Azetidine derivatives as CCR-3 receptor antagonists” (Novartis AG, priority 2002, dated 2007).

One may read the IC50 as the point on the concentration scale where inhibition reaches its midpoint. The Kd is the concentration at which binding is half-saturated.

In one assay the target is T1, human CCR-3 (Homo sapiens, UniProt P51677).
T1 construct: expressed in transfected cells; membranes
T1 sequence (P51677 1-355): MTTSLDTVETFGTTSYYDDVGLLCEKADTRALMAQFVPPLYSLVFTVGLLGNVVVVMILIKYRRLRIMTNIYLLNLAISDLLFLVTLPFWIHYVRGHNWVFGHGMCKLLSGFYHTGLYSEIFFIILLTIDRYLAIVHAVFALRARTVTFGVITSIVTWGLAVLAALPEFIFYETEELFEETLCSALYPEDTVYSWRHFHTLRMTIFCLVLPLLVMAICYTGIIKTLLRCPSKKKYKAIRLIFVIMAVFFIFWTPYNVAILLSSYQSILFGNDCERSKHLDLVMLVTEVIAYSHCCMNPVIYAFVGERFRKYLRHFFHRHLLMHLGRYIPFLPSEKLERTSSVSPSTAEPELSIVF
Briefly: CCR-3 binding assay (SPA, [125I]-human eotaxin). As to conditions: membranes of RBL-2H3 cells stably expressing CCR3, 4 hours at room temperature, read-out: IC50, inhibition of binding of human eotaxin to human CCR-3. The method, then: In this assay the effect of agents of the invention on the binding of human eotaxin to human CCR-3 is determined. Recombinant cells expressing human CCR-3 are captured by wheatgerm agglutinin (WGA) polyvinyltoluidene (PVT) SPA beads (available from Amersham), through a specific interaction between the WGA and carbohydrate residues of glycoproteins on the surface of the cells. [^125I]-human eotaxin (available from Amersham) binds specifically to CCR-3 receptors bringing the [^125I]-human eotaxin in close proximity to the SPA beads. Emitted â-particles from the [^125I]-human eotaxin excite, by its proximity, the fluorophore in the beads and produce light.
Preparation of Assay Buffer: 5.96 g HEPES and 7.0 g sodium chloride are dissolved in distilled water and 1M aqueous CaCl2 (1 ml) and 1M aqueous MgCl2 (5 ml) are added. The pH is adjusted to 7.6 with NaOH and the solution made to a final volume of 1 L using distilled water. 5 g bovine serum albumin and 0.1 g sodium azide are then dissolved in the solution and the resulting buffer stored at 4° C. A Complete™ protease inhibitor cocktail tablet (available from Boehringer) is added per 50 ml of the buffer on the day of use.
Preparation of Homogenisation Buffer: Tris-base (2.42 g) is dissolved in distilled water, the pH of the solution is adjusted to 7.6 with hydrochloric acid and the solution is diluted with distilled water to a final volume of 1 l. The resulting buffer is stored at 4° C. A Complete™ protease inhibitor cocktail tablet is added per 50 ml of the buffer on the day of use.
Preparation of membranes: Confluent rat basophil leukemia (RBL-2H3) cells stably expressing CCR3 are removed from tissue culture flasks using enzyme-free cell dissociation buffer and resuspended in phosphate-buffered saline. The cells are centrifuged (800 g, 5 minutes), the pellet resuspended in ice-cold homogenisation buffer using 1 ml homogenisation buffer per gram of cells and incubated on ice for 30 minutes. The cells are homogenised on ice with 10 strokes in a glass mortar and pestle. The homogenate is centrifuged (800 g, 5 minutes, 4° C.), the supernatant further centrifuged (48,000 g, 30 minutes, 4° C.) and the pellet redissolved in Homogenisation Buffer containing 10% (v/v) glycerol. The protein content of the membrane preparation is estimated by the method of Bradford (Anal. Biochem. (1976) 72:248) and aliquots are snap frozen and stored at −80° C.
The assay is performed in a final volume of 250 μl per well of an Optiplate™ microplate (ex Canberra Packard). To selected wells of the Optiplate™ are added 50 μl of solutions of a test compound in Assay Buffer containing 5% DMSO (concentrations from 0.01 nM to 10 μM). To determine total binding, 50 μl of the Assay Buffer containing 5% DMSO is added to other selected wells. To determine non-specific binding, 50 μl of 100 nM human eotaxin (ex R&D Systems) in Assay Buffer containing 5% DMSO is added to further selected wells. To all wells are added 50 μl [^125I]-Human eotaxin (ex Amersham) in Assay Buffer containing 5% DMSO at a concentration of […] (to give a final concentration of […]), 50 μl of WGA-PVT SPA beads in Assay Buffer (to give a final concentration of 1.0 mg beads per well) and 100 μl of the membrane preparation at a concentration of 100 μg protein in Assay Buffer (to give a final concentration of 10 μg protein per well). The plate is then incubated for 4 hours at room temperature. The plate is sealed using TopSeal-S™ sealing tape (ex Canberra Packard) according to the manufacturers instructions. The resulting scintillations are counted using a Canberra Packard TopCount™ scintillation counter, each well being counted for 1 minute. The concentration of test compound at which 50% inhibition occurs (IC50) is determined from concentration-inhibition curves in a conventional manner.

The next assay deals with histamine H1 (Homo sapiens, UniProt P35367). Put plainly: histamine H1 antagonism.
The target in assay [1] is alpha-1 adrenergic receptor. Briefly: alpha-1 adrenergic receptor radioligand binding assay ([125I]-HEAT, cerebral cortex membranes). The following applies: rat cerebral cortex membranes; radioligand used at 40 pM. The method, then: Cerebral cortices from male Sprague-Dawley rats (175-200 g) are dissected and homogenised in 10 volumes of ice cold 0.32 M sucrose (containing 1 mM MgCl2 dihydrate and 1 mM K2HPO4) with a glass/teflon homogeniser. The membranes are centrifuged at 1000×g for 15 miN, the pellet discarded and the centrifugation repeated. The supernatants are pooled and centrifuged at 18,000×g for 15 minutes. The pellet is osmotically shocked in 10 volumes of water and kept on ice for 30 minutes. The suspension is centrifuged at 39,000×g for 20 minutes, resuspended in Krebs-Henseleit buffer pH 7.4 (1.17 mM MgSO4 anhydrous, 4.69 mM KCl, 0.7 mM K2HPO4 anhydrous, 0.11 M NaCl, 11 mM D-glucose and 25 mM NaHCO3) containing 20 mM Tris, and kept for 2 days at −20° C. The membranes are then thawed at 20-23° C., washed three times with Krebs-Henseleit buffer by centrifugation at 18,000×g for 15 minutes, left overnight at 4° C. and washed again three times. The final pellet is resuspended with a glass/teflon homogeniser in 125 ml/100 membranes in the same buffer. […]
The resulting membranes are subjected to a radioligand binding assay. […] Following drying of the plates for 3 h. at 50° C., 40 μl of Microscint 20 is added to each well, the plates incubated at room temperature for a further 20 minutes and the retained radioactivity quantified in a Packard TopCount NXT™ scintillation counter. […]

Chain of histamine H1 (P35367 whole entry): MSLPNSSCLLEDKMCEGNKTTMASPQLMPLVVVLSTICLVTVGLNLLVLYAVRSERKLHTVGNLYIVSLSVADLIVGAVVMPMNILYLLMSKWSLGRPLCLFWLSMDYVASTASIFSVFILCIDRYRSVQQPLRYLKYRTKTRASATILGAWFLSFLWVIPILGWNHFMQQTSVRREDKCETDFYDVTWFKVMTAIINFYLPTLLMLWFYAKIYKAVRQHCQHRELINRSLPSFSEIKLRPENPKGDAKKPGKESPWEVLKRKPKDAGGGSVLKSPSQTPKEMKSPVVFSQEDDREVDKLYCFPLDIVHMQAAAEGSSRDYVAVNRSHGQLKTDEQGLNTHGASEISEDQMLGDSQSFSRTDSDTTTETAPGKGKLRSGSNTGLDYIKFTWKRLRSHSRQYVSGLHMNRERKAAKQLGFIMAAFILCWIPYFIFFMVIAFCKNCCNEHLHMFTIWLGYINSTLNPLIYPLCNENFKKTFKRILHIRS

Turning to `COc1cc(NC(=O)N[C@H](CO)CCN2CC(Oc3ccc(Cl)cc3)C2)cc(OC)c1` [Example 26, 1-{(S)-3-[3-(4-Chloro-phenoxy)-azetidin-1-yl]-1-hydroxymethyl-propyl}-3-(3,5-dimethoxy-phenyl)-urea], the IC50 on human CCR-3 stood at 7 nM.

`Cn1nc(C2CC2)cc1NC(=O)N[C@H](CO)CCN1CC(Oc2ccc(Cl)cc2)C1` [Example 83, 1-{(S)-3-[3-(4-Chloro-phenoxy)-azetidin-1-yl]-1-hydroxymethyl-propyl}-3-(5-cyclopropyl-2-methyl-2H-pyrazol-3-yl)-urea]: the IC50 on human CCR-3 was found to be 5 nM.

For the molecule `CCc1cc(NC(=O)N[C@H](CO)CCN2CC(Oc3ccc(Cl)cc3)C2)n(C)n1` [Example 88, 1-{(S)-3-[3-(4-Chloro-phenoxy)-azetidin-1-yl]-1-hydroxymethyl-propyl}-3-(5-ethyl-2-methyl-2H-pyrazol-3-yl)-urea], the IC50 at human CCR-3 worked out at 6 nM.

As for `CCc1nnc(NC(=O)N[C@H](CO)CCN2CC(Oc3ccc(Cl)cc3)C2)s1` [Example 99, 1-{(S)-3-[3-(4-Chloro-phenoxy)-azetidin-1-yl]-1-hydroxymethyl-propyl}-3-(5-ethyl-[1,3,4]thiadiazol-2-yl)-urea], the 50% inhibitory concentration (IC50) on human CCR-3 is 7 nM.

As for `COc1cc(NC(=O)N[C@@H](CCN2CC(Oc3ccc(Cl)cc3)C2)COC(C)=O)cc(OC)c1` [Example 122, Acetic acid (S)-4-[3-(4-chloro-phenoxy)-azetidin-1-yl]-2-[3-(3,5-dimethoxy-phenyl)-ureido]-butyl ester], the IC50 at human CCR-3 was 22 nM.

For `CCc1nnc(NC(=O)NCCCN2CC(Cc3ccc(Cl)cc3)C2)s1` [Example 190, 1-{3-[3-(4-chloro-benzyl)-azetidin-1-yl]-propyl}-3-(5-ethyl-[1,3,4]thiadiazol-2-yl)-urea], the “histamine H1 antagonist activity” value at histamine H1 is “histamine H1 antagonists”. Moreover, on human CCR-3, the half-inhibitory concentration (IC50) stood at 11 nM.

`O=C1c2ccccc2CCC1CNCCc1ccc(O)c(I)c1` (centres unmarked) [[^125I]-HEAT] returned a dissociation constant (Kd) in assay [1] of 0.0589 ± 0.0187 nM.
